Like-named read-outs stand apart in the source and are kept apart here.
Assays:
Fetal Hemoglobin (HbF) = assay: Small molecule HbF induction assay in erythroid-differentiated mPB CD34+ cells (flow cytometry); type: cell-based, human; conditions: highest percentage of cells staining positive for HbF (% HbF+ cells) in fitted dose-response curve; DMSO baseline approximately 30-40%
Method: Cryopreserved primary human CD34^+ hematopoietic stem and progenitor cells were obtained from AllCeIIs, LLC. The CD34^+ cells were isolated from the peripheral blood of healthy donors after mobilization by administration of granulocyte colony-stimulating factor. Cells were differentiated ex vivo toward the erythroid lineage using a 2-phase culture method. In the first phase, cells were cultured in Stemspan™ Serum-Free Expansion Media (SFEM) ([…] Technologies Inc.) supplemented with rhSCF (50 ng/mL, Peprotech®, Inc.), rhlL-6 (50 ng/mL, Peprotech®, Inc.), rhlL-3 (50 ng/mL, Peprotech®, Inc.), and rhFlt3L (50 ng/mL, Peprotech®, Inc.), and 1× antibiotic-antimycotic (Life Technologies, Thermo Fisher Scientific) for 6 days at 37° C. with 5% CO2. During the second phase, cells were cultured in erythroid differentiation media at 5,000 cells/mL in the presence of compound for 7 days at 37° C. with 5% […]. Erythroid Differentiation Media is comprised of IMDM (Life Technologies) supplemented with insulin (10 μg/mL. Sigma Aldrich), heparin (2 U/mL Sigma Aldrich), holo-transferrin (330 μg/mL, Sigma Aldrich), human serum AB (5%, Sigma Aldrich), hydrocortisone (1 μM, […] Technologies), rhSCF (100 ng/mL, Peprotech®, Inc.), rhIL-3 (5 ng/mL. Peprotech®, Inc.), rhEPO (3 U/mL, Peprotech®, Inc.), and 1× antibiotic-antimycotic. All compounds were dissolved and diluted into dimethylsulfoxide (DMSO) and were added to culture media for a final concentration of 0.3% DMSO for testing in a 10-point, 1:3 dilution series starting at 10 uM.
For viability analysis, samples were washed and resuspended in phosphate-buffered saline (PBS) and stained with LlVE/DEAD™ Fixable Violet Dead Cell Stain Kit (Life Technologies, L34963) for 20 minutes. Cells were then washed again with PBS and resuspended in PBS supplemented with 2% fetal bovine serum (FBS), and 2 mM EDTA to prepare for cell surface marker analysis. […]
mPB CD34+ cells were expanded for 6 days, then erythroid differentiated in the presence of compound for 7 days. Cells were fixed, stained and analyzed by flow cytometry. […]

SALL4 = biological target: T1, SALL4 (Homo sapiens, UniProt Q96SW2+Q9UJQ4); assay: Quantification of SALL4 protein levels in HiBiT tag fusion protein assay; type: cell-based; conditions: for SALL4 Amax: DMSO-normalized, curve-fitted percentage of SALL4-HiBiT remaining at 50 uM, mean over repeats; for DC50: arithmatic mean over number of repeats, 18 hours, top 50 μM, read-out: SALL4 AC50
T1 construct: expressed in transfected cells; host or cells: GripTite 293 MSR cells (293GT), ThermoFisher Scientific, stably transfected by electroporation, blasticidin-selected clones
Method: The HiBiT system from Promega was used to develop high-throughput and quantitative assays to measure changes in SALL4 protein levels in response to compounds. The HiBiT tag was derived from a split Nanoluciferase and has the following protein sequence: […] (SEQ ID No: 1). The complementary fragment of Nanoluciferase (known as LgBiT, from Promega), was added to the HiBiT tag to form an active Nanoluciferase enzyme whose activity can be precisely measured. In this way, the levels of a fusion protein with the HiBiT tag can be quantified in cell lysates.
DNA constructs, based on the Invitrogen pLenti6.2/V5 DEST backbone, were constructed with the HiBiT tag upstream of SALL4 and expressed the fusion protein from a CMV promotor.
To ensure moderate and consistent expression of the HiBiT-SALL4 fusion protein across all cells in the population, stable cell lines were derived from clones. GripTite 293 MSR cells (293GT) from ThermoFisher Scientific (Catalog number: CRL-R79507), were stably transfected with prepared constructs via electroporation. Following recovery, cells were selected by 10 ug/mL blasticidin in culture media.
The levels of HiBiT-SALL4 tagged fusion proteins in compound-treated cell lines were measured as follows:
On day 1, cells were diluted to 1.0×10^6 cells/ml in normal growth medium. 20 μL of cell suspension were plated in each well of a solid white 384-well plate. Plates were incubated overnight in a 37° C. and 5% CO2 humidified tissue culture incubator.
On day 2, serial dilutions of compounds were made in 384-well plates. Compound plates were set up with DMSO in columns 1, 2, 23, 24, and 10-point compound dilution series in column 3-12 and column 13-22. 10 mM stock solution of compound were placed into column 3 or 13 and a 1:5 serial dilution was carried out until there was a 10-point dilution series per compound. 100 nL of diluted compounds were transferred into the plated cells by Echo® (Labcyte) acoustic transfer. The highest concentration of compound was 50 μM. Plates were incubated overnight (18 hours) in a 37° C. and 5% CO2 humidified tissue culture incubator.
On day 3, plates were removed from the incubator and allowed to equilibrate at room temperature for 60 minutes. HiBiT substrate (Nano-Glo® HiBit Lytic Detection System, Promega Catalogue number: N3050) was added as described by the manufacturers protocols. Plates were incubated at room temperature for 30 minutes and luminescence was read using an EnVision® reader (PerkinElmer®). Data was analyzed and visualized using the Spotfire® software package.
SALL4 Amax reflects the DMSO-normalized, curve-fitted percentage of SALL4-HiBiT remaining at 50 uM. It was calculated by normalizing DMSO controls to 100%, parametric curve fitting of the dose response data (10-point, 5-fold), followed by calculation of response at 50 uM using the fitted equation.
This assay produced a range of SALL4 AC50 and Amax values over several repeat runs due to normal variations in the assay. For a comparison to the compounds described in PCT/IB2020/062070, the arithmatic mean values are reported over the number of repeats specified. […] The compounds of the present disclosure are therefore expected to have improved toxicological properties (Matyskiela, M. E., Couto, S., Zheng, X. et al. SALL4 mediates teratogenicity as a thalidomide-dependent cereblon substrate. Nat Chem Biol 14, 981-987 (2018); Donovan, K. A. et al. Thalidomide promotes degradation of SALL4, a transcription factor Implicated in Duane Radial Ray syndrome. eLife 2018; 7:e38430).

WIZ = biological target: T2, WIZ (Homo sapiens, UniProt O95785+Q96SW2); assay: Quantification of WIZ protein levels in HiBit tag fusion protein assay (293T cells); type: cell-based; parameters: Dmax: dose or concentration left out as unconfirmed
T2 construct: expressed in transfected cells
In short: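 293T cells stably carrying a single-copy HiBit-WIZ fusion were exposed to compounds for about 18 hours at 37° C., top concentration 25 μM, 10-point 5-fold series. Lysates were complemented with LgBit and luminescence was read. Amax is the DMSO-normalized, curve-fitted percentage of WIZ-HiBit remaining at 25 uM.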

T2 sequence (O95785 whole entry, the tested form may be a part): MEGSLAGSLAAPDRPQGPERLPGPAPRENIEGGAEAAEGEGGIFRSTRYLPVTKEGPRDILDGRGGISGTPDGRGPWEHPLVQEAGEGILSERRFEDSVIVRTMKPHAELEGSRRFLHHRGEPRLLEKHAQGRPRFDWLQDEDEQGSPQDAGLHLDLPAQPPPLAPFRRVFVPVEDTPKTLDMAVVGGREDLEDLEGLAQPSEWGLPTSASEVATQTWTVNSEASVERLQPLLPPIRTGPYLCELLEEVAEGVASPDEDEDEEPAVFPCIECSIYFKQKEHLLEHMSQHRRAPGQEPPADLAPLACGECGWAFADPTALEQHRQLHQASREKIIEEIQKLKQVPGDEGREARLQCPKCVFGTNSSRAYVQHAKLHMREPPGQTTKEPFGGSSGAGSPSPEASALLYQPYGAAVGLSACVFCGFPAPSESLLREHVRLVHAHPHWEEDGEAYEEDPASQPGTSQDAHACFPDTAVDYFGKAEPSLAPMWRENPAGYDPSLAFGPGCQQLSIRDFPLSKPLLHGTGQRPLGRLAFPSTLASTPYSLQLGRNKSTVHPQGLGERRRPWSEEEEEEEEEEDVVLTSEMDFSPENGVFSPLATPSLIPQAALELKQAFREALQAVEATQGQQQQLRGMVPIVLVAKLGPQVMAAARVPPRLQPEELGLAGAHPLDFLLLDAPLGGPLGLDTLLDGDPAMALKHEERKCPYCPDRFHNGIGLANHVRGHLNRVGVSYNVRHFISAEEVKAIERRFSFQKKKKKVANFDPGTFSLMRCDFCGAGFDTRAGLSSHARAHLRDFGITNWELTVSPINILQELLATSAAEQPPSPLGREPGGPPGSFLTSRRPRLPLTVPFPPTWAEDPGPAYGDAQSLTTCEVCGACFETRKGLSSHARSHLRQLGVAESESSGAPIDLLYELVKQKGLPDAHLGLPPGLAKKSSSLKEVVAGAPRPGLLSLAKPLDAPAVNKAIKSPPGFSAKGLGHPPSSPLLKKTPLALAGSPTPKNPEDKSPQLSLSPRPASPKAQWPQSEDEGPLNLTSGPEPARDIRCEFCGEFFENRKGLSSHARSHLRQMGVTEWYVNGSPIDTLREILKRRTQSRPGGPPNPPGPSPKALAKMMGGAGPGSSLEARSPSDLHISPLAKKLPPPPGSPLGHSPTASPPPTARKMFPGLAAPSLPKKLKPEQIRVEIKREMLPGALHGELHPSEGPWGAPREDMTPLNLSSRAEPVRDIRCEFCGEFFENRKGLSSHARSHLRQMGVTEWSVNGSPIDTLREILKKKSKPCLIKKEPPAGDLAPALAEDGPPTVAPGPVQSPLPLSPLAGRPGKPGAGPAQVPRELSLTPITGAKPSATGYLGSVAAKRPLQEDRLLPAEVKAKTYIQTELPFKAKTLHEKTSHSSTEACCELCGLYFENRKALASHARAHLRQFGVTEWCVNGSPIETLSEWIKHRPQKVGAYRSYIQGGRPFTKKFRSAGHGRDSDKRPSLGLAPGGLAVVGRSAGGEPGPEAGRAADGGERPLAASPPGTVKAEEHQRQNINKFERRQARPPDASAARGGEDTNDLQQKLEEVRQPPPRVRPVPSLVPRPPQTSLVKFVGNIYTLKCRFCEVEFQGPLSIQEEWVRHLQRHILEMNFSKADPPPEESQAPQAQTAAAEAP
T2 sequence (Q96SW2 whole entry, the tested form may be a part): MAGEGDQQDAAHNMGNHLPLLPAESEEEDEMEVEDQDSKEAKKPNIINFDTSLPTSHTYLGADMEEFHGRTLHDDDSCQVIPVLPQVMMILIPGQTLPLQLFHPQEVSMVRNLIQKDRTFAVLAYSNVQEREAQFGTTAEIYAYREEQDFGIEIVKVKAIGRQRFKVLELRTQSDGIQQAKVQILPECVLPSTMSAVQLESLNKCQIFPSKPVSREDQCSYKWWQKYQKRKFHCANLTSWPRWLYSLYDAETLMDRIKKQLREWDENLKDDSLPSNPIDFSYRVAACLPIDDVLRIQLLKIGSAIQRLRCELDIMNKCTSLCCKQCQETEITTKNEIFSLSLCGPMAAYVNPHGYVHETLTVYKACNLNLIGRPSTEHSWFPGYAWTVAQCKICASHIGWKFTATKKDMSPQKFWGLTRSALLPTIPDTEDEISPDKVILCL
T2 sequence (Q16531 whole entry partner, the tested form may be a part): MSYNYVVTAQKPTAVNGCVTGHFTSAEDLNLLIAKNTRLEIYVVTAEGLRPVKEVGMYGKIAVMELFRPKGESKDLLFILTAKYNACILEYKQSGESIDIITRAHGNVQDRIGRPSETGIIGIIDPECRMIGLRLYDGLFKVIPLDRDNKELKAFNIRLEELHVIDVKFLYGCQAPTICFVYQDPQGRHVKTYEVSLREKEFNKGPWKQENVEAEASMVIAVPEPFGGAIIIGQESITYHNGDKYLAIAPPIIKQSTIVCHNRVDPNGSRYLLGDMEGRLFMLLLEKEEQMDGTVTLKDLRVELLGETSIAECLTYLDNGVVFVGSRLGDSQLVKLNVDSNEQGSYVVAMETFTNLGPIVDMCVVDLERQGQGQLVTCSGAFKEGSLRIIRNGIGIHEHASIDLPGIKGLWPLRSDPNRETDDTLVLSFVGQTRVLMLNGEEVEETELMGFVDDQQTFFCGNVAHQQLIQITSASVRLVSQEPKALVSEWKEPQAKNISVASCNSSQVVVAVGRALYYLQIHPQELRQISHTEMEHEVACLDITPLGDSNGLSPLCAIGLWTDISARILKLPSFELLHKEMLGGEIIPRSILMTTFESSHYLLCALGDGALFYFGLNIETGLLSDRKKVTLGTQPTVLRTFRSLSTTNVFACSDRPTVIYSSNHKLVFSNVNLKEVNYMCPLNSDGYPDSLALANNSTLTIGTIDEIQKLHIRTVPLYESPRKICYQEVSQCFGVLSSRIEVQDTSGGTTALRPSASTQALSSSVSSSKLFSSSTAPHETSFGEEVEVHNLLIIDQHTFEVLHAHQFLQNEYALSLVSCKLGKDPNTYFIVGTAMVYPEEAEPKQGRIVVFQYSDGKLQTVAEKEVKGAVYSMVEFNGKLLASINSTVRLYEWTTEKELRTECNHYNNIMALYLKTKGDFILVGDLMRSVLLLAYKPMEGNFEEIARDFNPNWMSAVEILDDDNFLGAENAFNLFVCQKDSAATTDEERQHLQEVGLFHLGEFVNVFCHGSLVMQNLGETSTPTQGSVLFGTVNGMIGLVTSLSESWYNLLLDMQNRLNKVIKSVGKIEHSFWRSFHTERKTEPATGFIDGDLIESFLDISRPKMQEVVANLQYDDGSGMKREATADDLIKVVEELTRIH
T1 sequence (Q9UJQ4 whole entry, the tested form may be a part): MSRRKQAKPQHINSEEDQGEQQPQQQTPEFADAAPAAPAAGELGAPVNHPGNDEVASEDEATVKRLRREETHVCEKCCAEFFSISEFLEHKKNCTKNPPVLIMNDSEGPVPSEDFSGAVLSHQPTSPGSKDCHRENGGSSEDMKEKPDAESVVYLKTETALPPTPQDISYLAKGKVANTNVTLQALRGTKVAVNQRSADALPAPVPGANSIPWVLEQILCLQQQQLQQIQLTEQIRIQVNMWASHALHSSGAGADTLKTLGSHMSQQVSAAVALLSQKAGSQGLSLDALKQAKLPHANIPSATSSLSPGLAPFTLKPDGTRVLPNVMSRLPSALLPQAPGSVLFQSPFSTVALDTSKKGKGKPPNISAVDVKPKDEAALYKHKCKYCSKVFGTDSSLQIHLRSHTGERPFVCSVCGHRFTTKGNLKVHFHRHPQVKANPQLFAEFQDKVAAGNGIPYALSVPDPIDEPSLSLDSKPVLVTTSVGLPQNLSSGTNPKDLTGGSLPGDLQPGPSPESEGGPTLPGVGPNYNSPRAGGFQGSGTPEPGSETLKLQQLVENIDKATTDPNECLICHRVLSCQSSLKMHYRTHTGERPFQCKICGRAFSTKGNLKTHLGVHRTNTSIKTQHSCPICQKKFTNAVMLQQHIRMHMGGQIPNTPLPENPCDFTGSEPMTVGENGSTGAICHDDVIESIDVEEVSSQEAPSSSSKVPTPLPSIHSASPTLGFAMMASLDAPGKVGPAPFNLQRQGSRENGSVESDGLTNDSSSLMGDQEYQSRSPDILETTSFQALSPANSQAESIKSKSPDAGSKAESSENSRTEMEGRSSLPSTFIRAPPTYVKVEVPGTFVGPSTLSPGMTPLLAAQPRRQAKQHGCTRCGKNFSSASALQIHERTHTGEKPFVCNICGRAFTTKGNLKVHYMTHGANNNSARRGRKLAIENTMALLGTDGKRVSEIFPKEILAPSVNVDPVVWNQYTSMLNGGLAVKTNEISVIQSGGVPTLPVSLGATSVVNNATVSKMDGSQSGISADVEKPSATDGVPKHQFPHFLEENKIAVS
T1 sequence (Q96SW2 whole entry, the tested form may be a part): as the sequence (Q96SW2 whole entry, the tested form may be a part) above
T1 sequence (Q16531 whole entry partner, the tested form may be a part): as the sequence (Q16531 whole entry partner, the tested form may be a part) above

Row | SALL4 Amax (SALL4) | DC50 (SALL4) | remaining activity at 25 µM (WIZ; HEK-293T; DMSO-normalized, curve-fitted percentage of WIZ-HiBit remaining at 25 uM; read-out: WIZ Amax) | Dmax at 25 µM (WIZ; HEK-293T; at 25 uM, 100 − Amax; read-out: % degradation of WIZ (100 − Amax)) | DC50 (WIZ; WIZ HiBit assay in 293T cells, about 18 hours, 10-point 5-fold dilution, top 25 μM; read-out: WIZ AC50) | DC50 (WIZ; updated arithmatic mean over the number of repeats specified, assay of Example 89; read-out: WIZ AC50) | SMILES | HbF Amax (Fetal Hemoglobin (HbF)) | Dmax (WIZ; HEK-293T, read-out: % degradation of WIZ (100 − Amax)) | remaining activity at 25 µM (WIZ; HEK-293T, read-out: WIZ Amax) | DC50 (WIZ; read-out: WIZ AC50; WIZ HiBit assay in 293T cells, about 18 hours, 10-point 5-fold dilution, top 25 μM)
1 | 52.88% | 130 nM |  |  |  |  | O=C1CCC(N2Cc3cc(OC[C@H]4CCCCN4CC4CC4)ccc3C2=O)C(=O)N1 (stereo partly drawn) [Comparative Example 3, 3-(5-(((R)-1-(cyclopropylmethyl)piperidin-2-yl)methoxy)-1-oxoisoindolin-2-yl)piperidine-2,6-dione, reference compound] |  |  |  | 
2 | 70.82% | 140 nM | 27.6% | 72.4% | 14 nM | 21 nM | O=C1CCC(N2Cc3cc(O[C@@H]4CCCN(CC5CC5)C4)ccc3C2=O)C(=O)N1 (stereo partly drawn) [Example 13, 3-(5-(((R)-1-(cyclopropylmethyl)piperidin-3-yl)oxy)-1-oxoisoindolin-2-yl)piperidine-2,6-dione] |  |  |  | 
3 |  |  |  |  |  |  | CCN1C[C@H](Oc2ccc3c(c2)CN(C2CCC(=O)NC2=O)C3=O)CC[C@@H]1C (stereo partly drawn) [Example 41, 3-(5-(((3R,6S)-1-ethyl-6-methylpiperidin-3-yl)oxy)-1-oxoisoindolin-2-yl)piperidine-2,6-dione] | 73.1% | 88.6% | 11.4% | 0.14 nM

Row | SMILES | SALL4 Amax (SALL4) | DC50 (SALL4) | remaining activity at 25 µM (WIZ; HEK-293T; DMSO-normalized, curve-fitted percentage of WIZ-HiBit remaining at 25 uM; read-out: WIZ Amax) | Dmax at 25 µM (WIZ; HEK-293T; at 25 uM, 100 − Amax; read-out: % degradation of WIZ (100 − Amax)) | DC50 (WIZ; WIZ HiBit assay in 293T cells, about 18 hours, 10-point 5-fold dilution, top 25 μM; read-out: WIZ AC50) | DC50 (WIZ; updated arithmatic mean over the number of repeats specified, assay of Example 89; read-out: WIZ AC50) | HbF Amax (Fetal Hemoglobin (HbF)) | Dmax (WIZ; HEK-293T, read-out: % degradation of WIZ (100 − Amax)) | remaining activity at 25 µM (WIZ; HEK-293T, read-out: WIZ Amax) | DC50 (WIZ; read-out: WIZ AC50; WIZ HiBit assay in 293T cells, about 18 hours, 10-point 5-fold dilution, top 25 μM)
4 | CCN1CCCC[C@@H]1COc1ccc2c(c1)CN(C1CCC(=O)NC1=O)C2=O (mixture of isomers) [Comparative Example 1, 3-(5-(((R)-1-ethylpiperidin-2-yl)methoxy)-1-oxoisoindolin-2-yl)piperidine-2,6-dione, reference compound] | 51.51% | 160 nM |  |  |  |  | 64.1% |  |  | 

From patent US12103919B2, “3-(5-oxy)-1-oxoisoindolin-2-yl)piperidine-2,6-dione derivatives and uses thereof” (NOVARTIS AG, priority 2021, dated 2024)
